Nine molecules from patent publication US8461107B2 (Merck Sharp & Dohme Corp., priority 2008, dated 2013) can be followed below.

What is called pKi is the Ki on a negative log10 scale, so that one unit is a factor of ten. Read a low pKi as a large Ki.

pKi: −log10 of the molar value. Some results are limits rather than exact numbers.

For the experiment, the target named is T1, HCV genotype 1b (BK) NS3 modified with a R155K mutation (Hepatitis C virus genotype 1b, UniProt P26663, R1181K).
T1 construct: HCV genotype 1b (BK) NS3 modified with a R155K mutation
Briefly: HCV NS3 protease time-resolved fluorescence (TRF) assay, NS3 protease 1b R155K Ki activity. It is filed as biochemical. Particulars: HCV genotype 1b (BK) NS3 with R155K mutation; TRF peptide substrate 100 nM; Ki derived from IC50. The essentials: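 Pre-incubation of NS3/NS4A protease (genotype 1b BK, R155K) with inhibitor for 30 min, then 1 h at room temperature with 100 nM TRF peptide substrate in pH 7.5 HEPES buffer with 10 mM DTT. Reaction quenched with pH 5.5 MES; time-resolved fluorescence read (ex 340/em 615 nm). Ki derived from four-parameter IC50 fit via IC50=Ki(1+[S]/KM).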
With `CC[C@@H]1C[C@]1(NC(=O)[C@@H]1C[C@@H]2CN1C(=O)[C@H](C(C)(C)C)NC(=O)O[C@@H]1CCC[C@H]1CCCCCn1c(cc3cc(Cl)ccc3c1=O)O2)C(=O)NS(=O)(=O)C1CC1` [Example 28, (3aR,7S,10S,12R,25aR)-7-tert-butyl-16-chloro-N-((1R,2R)-1-{[(cyclopropylsulfonyl)amino]carbonyl}-2-ethylcyclopropyl)-5,8,19-trioxo-1,2,3,3a,5,6,7,8,11,12,21,22,23,24,25,25a-hexadecahydro-10H,19H-9,12-methanocyclopenta[18,19][1,10,3,6,12]dioxatriazacyclononadecino[12,11-b]isoquinolin-10-carboxamide], the pKi is 9.30 to 10.00. Consider `C=C[C@@H]1C[C@]1(NC(=O)[C@@H]1C[C@@H]2CN1C(=O)[C@H](C1CCCC1)NC(=O)O[C@@H]1CCC[C@H]1CC/C=C/Cn1c(nc3cc(Br)ccc3c1=O)O2)C(=O)NS(=O)(=O)C1CC1` [Example 43, (3aR,7S,10S,12R,22E,25aS)-16-bromo-7-cyclopentyl-N-((1R,2S)-1-{[(cyclopropylsulfonyl)amino]carbonyl}-2-vinylcyclopropyl)-5,8,19-trioxo-1,2,3,3a,5,6,7,8,11,12,21,24,25,25a-tetradecahydro-10H,19H-9,12-methanocyclopenta[18,19][1,10,3,6,12]dioxatriazatriazacyclononadecino[11,12-b]quinazoline-10-carboxamide], for which the pKi is over 10.00. On to `CC[C@@H]1C[C@]1(NC(=O)[C@@H]1C[C@@H]2CN1C(=O)[C@H](C1CCCC1)NC(=O)O[C@@H]1CCC[C@H]1CC/C=C/Cn1c(nc3cc(OC)ccc3c1=O)O2)C(=O)NS(=O)(=O)C1CC1` [Example 50, (3aR,7S,10S,12R,22E,25aS)-7-cylcopentyl-N-((1R,2R)-1-{[(cyclopropylsulfonyl)amino]carbonyl}-2-ethylcyclopropyl)-16-methoxy-5,8,19-trioxo-1,2,3,3a,5,6,7,8,11,12,21,24,25,25a-tetradecahydro-10H,19H-9,12-methanocyclopenta[18,19][1,10,3,6,12]dioxatriazacyclononadecino[11,12-b]quinazoline-10-carboxamide], for which the pKi was 9.30 to 10.00. Turning to `C=C[C@@H]1C[C@]1(NC(=O)[C@@H]1C[C@@H]2CN1C(=O)[C@H](C1CCCC1)NC(=O)O[C@@H]1CCC[C@H]1CC/C=C/Cn1c(nc3c(OC)cccc3c1=O)O2)C(=O)NS(=O)(=O)C1CC1` [Example 51], the pKi was over 10.00.

In turn, `C=C[C@@H]1C[C@]1(NC(=O)[C@@H]1C[C@@H]2CN1C(=O)[C@H](C1CCCC1)NC(=O)O[C@@H]1CCC[C@H]1CC/C=C/Cc1c(nc3cc(OC)ccn3c1=O)O2)C(=O)NS(=O)(=O)C1CC1` [Example 57, (3aR,7S,10S,12R,22E,25aS)-7-cyclopentyl-N-((1R,2S)-1-{[(cyclopropylsulfonyl)amino]carbonyl}-2-vinylcylcopropyl)-16-methoxy-5,8,20-trioxo-1,2,3,3a,5,6,7,8,11,12,21,24,25,25a-tetradecahydro-10H,20H-9,12-methanocyclopenta[r]pyrido[1′,2′:1,2]pyrimido[4,5-k][1,10,3,6]dioxadiazacyclononadecine-10-carboxamide] had a negative logarithm of the Ki (pKi) of over 10.00. For `C=C[C@@H]1C[C@]1(NC(=O)[C@@H]1C[C@@H]2CN1C(=O)[C@H](C1CCCC1)NC(=O)O[C@@H]1CCC[C@H]1CC/C=C/Cn1c(nc3cc(C)ccc3c1=O)O2)C(=O)NS(=O)(=O)C1CC1` [Example 61], the pKi was over 10.00. Under `C=C[C@@H]1C[C@]1(NC(=O)[C@@H]1C[C@@H]2CN1C(=O)[C@H](C1CCCC1)NC(=O)O[C@@H]1CCC[C@H]1CC/C=C/Cn1c(nc3cc(C#N)ccc3c1=O)O2)C(=O)NS(=O)(=O)C1CC1` [Example 63, (3aR,7S,10S,12R,22E,25a8)-16-cyano-7-cyclopentyl-N-((1R,2S)-1-{[(cyclopropylsulfonyl)amino]carbonyl}-2-vinylcyclopropyl)-5,8,19-trioxo-1,2,3,3a,5,6,7,8,11,12,21,24,25,25a-tetradecahydro-10H,19H-9,12-methanocyclopenta[18,19][1,10,3,6,12]dioxatriazacyclononadecino[11,12-b]quinazoline-10-carboxamide] stands over 10.00; under `C=C[C@@H]1C[C@]1(NC(=O)[C@@H]1C[C@@H]2CN1C(=O)[C@H](C1CCCC1)NC(=O)O[C@@H]1CCC[C@H]1CCCCCn1c(nc3cc(C#N)ccc3c1=O)O2)C(=O)NS(=O)(=O)C1CC1` [Example 78, (3aR,7S,10S,12R,25aR)-16-cyano-7-cyclopentyl-N-((1R,2S)-1-{[(cycyclopropylsulfonyl)amino]carbonyl}-2-vinylcyclopropyl)-5,8,19-trioxo-1,2,3,3a,5,6,7,8,11,12,21,22,23,24,25,25a-hexadecahydro-10H,19H-9,12-methanocyclopenta[18,19][1,10,3,6,12]dioxatriazacyclononadecino[11,12-b]quinazoline-10-carboxamide], 9.30 to 10.00; under `C=C[C@@H]1C[C@]1(NC(=O)[C@@H]1C[C@@H]2CN1C(=O)[C@H](C1CCCC1)NC(=O)O[C@@H]1CCC[C@H]1CCC=CCn1c(cccc1=O)O2)C(=O)NS(=O)(=O)C1CC1` [Example 81, (1R,10E, and 10Z,14S,18R,22S,25S)-22-Cyclopentyl-N-((1R,2S)-1-{[(cyclopropyl-sulfonyl)amino]carbonyl}-2-vinylcyclopropyl)-7,20,23-trioxo-2,19-dioxa-8,21,24-tri azatetracyclo[22.2.1.0^3,8.0^14,18]heptacosa-3,5,10-triene-25-carboxamide], 9.30 to 10.00.
